This passage reports IC50 and Kd results from ChEMBL document CHEMBL1821700, “SAR by interligand nuclear overhauser effects (ILOEs) based discovery of acylsulfonamide compounds active against Bcl-x(L) and Mcl-1” (J Med Chem, 2011).

In assay [1] the target is T1, Bcl-2-like protein 1 (Homo sapiens, UniProt Q07817). As to the kind of experiment: Displacement of FITC labeled Bak BH3 peptide from Bcl-xL after 10 mins by Fluorescence Polarization assay.
For assay [2], the target named is Induced myeloid leukemia cell differentiation protein Mcl-1 (Homo sapiens, UniProt Q07820). As to the kind of experiment: Displacement of FITC labeled Bak BH3 peptide from Mcl-1 after 2 mins by Fluorescence Polarization assay.
Chain of Induced myeloid leukemia cell differentiation protein Mcl-1 (Q07820 whole entry): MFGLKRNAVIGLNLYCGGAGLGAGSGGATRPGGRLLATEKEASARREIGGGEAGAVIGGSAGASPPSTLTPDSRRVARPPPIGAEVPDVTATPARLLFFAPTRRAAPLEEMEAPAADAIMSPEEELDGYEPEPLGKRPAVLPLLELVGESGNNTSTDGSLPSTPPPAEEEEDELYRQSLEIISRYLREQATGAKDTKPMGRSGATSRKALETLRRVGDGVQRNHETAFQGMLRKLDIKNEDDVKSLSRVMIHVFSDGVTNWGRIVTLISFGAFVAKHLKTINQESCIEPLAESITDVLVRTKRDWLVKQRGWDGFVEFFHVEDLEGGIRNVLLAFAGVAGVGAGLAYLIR
Assay [3] deals with T1, Bcl-2-like protein 1. As to the kind of experiment: Binding affinity to Bcl-xL by 2D- NOESY analysis.

T1 sequence (Q07817 whole entry): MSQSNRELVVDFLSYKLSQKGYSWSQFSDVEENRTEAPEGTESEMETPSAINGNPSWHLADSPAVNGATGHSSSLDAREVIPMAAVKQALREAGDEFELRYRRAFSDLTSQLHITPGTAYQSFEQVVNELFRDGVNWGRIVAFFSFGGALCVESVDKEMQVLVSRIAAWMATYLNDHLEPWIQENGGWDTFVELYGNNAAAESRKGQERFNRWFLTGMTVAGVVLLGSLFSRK

Take `O=C(NS(=O)(=O)c1ccc(COc2ccccc2)cc1)c1cccc(-c2ccc(C(F)(F)F)cc2)c1`: the 50% inhibitory concentration (IC50) at Bcl-2-like protein 1 [1] came out at 6.2 µM; in assay [2], 8.37 µM.
The compound `Nc1ncccc1OCc1ccccc1` had a Kd on Bcl-2-like protein 1 [3] of 692 µM.
Turning to `CCOc1ccc(Oc2ccc(S(=O)(=O)NC(=O)c3cccc(-c4ccc(Cl)c(Cl)c4)c3)cc2)cc1`, the concentration for half-maximal inhibition (IC50) on Bcl-2-like protein 1 [1] was 0.086 µM; in assay [2], 0.14 µM.
The corresponding values for `N#Cc1c(Cl)cccc1Oc1ccc(S(=O)(=O)NC(=O)c2cccc(-c3ccc(Cl)c(Cl)c3)c2)cc1` are 2.7 µM and 3.18 µM.
`O=C(NS(=O)(=O)c1ccc(Oc2cc(C(F)(F)F)cc(C(F)(F)F)c2)cc1)c1cccc(-c2ccc(Cl)c(Cl)c2)c1`: the IC50 at Bcl-2-like protein 1 [1] came out at 2.94 µM; in assay [2], 3.04 µM.
Consider `O=C(NS(=O)(=O)c1ccc(COc2ccccc2)cc1)c1cccc(-c2ccc(Cl)c(Cl)c2)c1`, for which the IC50 at Bcl-2-like protein 1 [1] was found to be 7.15 µM; in assay [2] it was 5.76 µM.
The corresponding values for `O=C(NS(=O)(=O)c1ccc(Oc2ccccc2)cc1)c1cccc(-c2ccccc2)c1` are 28.5 µM and 3.24 µM.
Take `O=C(NS(=O)(=O)c1ccc(-c2ccccc2)cc1)c1ccc(Oc2ccccc2)cc1`: the IC50 on Bcl-2-like protein 1 [1] is 161 µM; in assay [2], > 1000 µM.
The corresponding values for `O=C(NS(=O)(=O)c1ccc2ccccc2c1)c1cccc(-c2ccc(Cl)c(Cl)c2)c1` are 10.9 µM and 13.2 µM.
The corresponding values for `O=C(NS(=O)(=O)c1ccc(COc2ccccc2)cc1)c1ccc(-c2cc(Cl)cc(Cl)c2)cc1` are 4.14 µM and 2.51 µM.
For `O=C(NS(=O)(=O)c1ccc(COc2ccccc2)cc1)c1cccc(-c2cc(Cl)cc(Cl)c2)c1`, the half-maximal inhibitory concentration (IC50) at Bcl-2-like protein 1 [1] is 0.31 µM; in assay [2], 7.57 µM.
On the same counts, the results for `CCCCOc1ccc(S(=O)(=O)NC(=O)c2cccc(-c3ccc(Cl)c(Cl)c3)c2)cc1` are 12.1 µM and 38.8 µM.
The corresponding values for `O=C(NS(=O)(=O)c1ccc(Oc2ccccc2)cc1)c1cccc(-c2cccc(Cl)c2Cl)c1` are 4.08 µM and 4.76 µM.
On to `O=C(NS(=O)(=O)c1ccc(COc2ccccc2)cc1)c1cccc(-c2ccccc2)c1`, for which the half-maximal inhibitory concentration (IC50) at Bcl-2-like protein 1 [1] was found to be 15.1 µM; in assay [2], 25.4 µM.
For the compound `O=C(NS(=O)(=O)c1ccc(COc2ccccc2)cc1)c1ccccc1-c1ccccc1`, the concentration for half-maximal inhibition (IC50) is 42.7 µM at Bcl-2-like protein 1 [1] and > 1000 µM in assay [2].
The corresponding values for `O=C(NS(=O)(=O)c1ccc(OCc2ccccc2)cc1)c1cccc(-c2ccc(Cl)c(Cl)c2)c1` are 2.96 µM and 4.88 µM.
In the case of `O=C(NS(=O)(=O)c1ccc(COc2ccccc2)cc1)c1ccc(-c2ccccc2)cc1`, the IC50 at Bcl-2-like protein 1 [1] was found to be 16.8 µM; in assay [2] it was 43.2 µM.
On the same counts, the results for `O=C(NS(=O)(=O)c1ccc(COc2ccccc2)cc1)c1cccc(-c2ccc(Cl)cc2Cl)c1` are 9.98 µM and 8.69 µM.
Take `O=C(NS(=O)(=O)c1ccc(Oc2ccc(F)cc2)cc1)c1cccc(-c2ccc(Cl)c(Cl)c2)c1`: the 50% inhibitory concentration (IC50) was 2.87 µM at Bcl-2-like protein 1 [1] and 3.91 µM in assay [2].
On the same counts, the results for `O=C(NS(=O)(=O)c1ccc(OCc2ccccc2)cc1)c1cccc(-c2cc(Cl)cc(Cl)c2)c1` are 0.18 µM and 0.22 µM.
On the same counts, the results for `O=C(NS(=O)(=O)c1ccc(Oc2ccccc2)cc1)c1ccc(-c2ccccc2)cc1` are 28 µM and 3.56 µM.
For `O=C(NS(=O)(=O)c1ccc(COc2ccccc2)cc1)c1ccc(-c2ccc(Cl)cc2)cc1`, the 50% inhibitory concentration (IC50) on Bcl-2-like protein 1 [1] turned out to be 3.79 µM; in assay [2], 7.26 µM.
On the same counts, the results for `O=C(NS(=O)(=O)c1ccc(Oc2ccccc2)cc1)c1cccc(-c2ccc(Cl)cc2Cl)c1` are 1.94 µM and 3.72 µM.
Take `O=C(NS(=O)(=O)c1ccc(OCC2CCCCC2)cc1)c1cccc(-c2ccc(Cl)c(Cl)c2)c1`: the IC50 came out at 0.16 µM at Bcl-2-like protein 1 [1] and 0.62 µM in assay [2].
On Bcl-2-like protein 1 [3], `O=C(O)c1ccc(-c2ccc(F)cc2)cc1` registered an equilibrium dissociation constant (Kd) of 300 µM.
With `O=C(NS(=O)(=O)c1ccc(Oc2ccccc2)cc1)c1ccc(-c2cc(Cl)cc(Cl)c2)cc1`, the IC50 on Bcl-2-like protein 1 [1] was 49.5 µM; in assay [2] it was 5.08 µM.
For `O=C(NS(=O)(=O)c1ccc(Oc2ccccc2)nc1)c1cccc(-c2cc(Cl)cc(Cl)c2)c1`, the IC50 is 2.31 µM on Bcl-2-like protein 1 [1] and 9.78 µM in assay [2].
For the compound `COc1ccc(-c2cccc(C(=O)NS(=O)(=O)c3ccc(Oc4ccccc4)cc3)c2)cc1OC`, the values for the IC50 (at Bcl-2-like protein 1 [1]; in assay [2]) were > 1000 µM and 42.6 µM, respectively.
The corresponding values for `O=C(NS(=O)(=O)c1ccc(Oc2ccccc2)cc1)c1ccc(-c2ccc(F)cc2)cc1` are 33.5 µM and 17.8 µM.
The corresponding values for `O=C(NS(=O)(=O)c1ccc(Oc2c(Cl)cccc2[N+](=O)[O-])cc1)c1cccc(-c2ccc(Cl)c(Cl)c2)c1` are 2 µM and 3.04 µM.
The compound `O=C(O)c1ccccc1N1CCCCC1` returned a Kd on Bcl-2-like protein 1 [3] of 378 µM.
The compound `Oc1cccc2c1CCCC2` showed a dissociation constant (Kd) on Bcl-2-like protein 1 [3] of 4300 µM.
Consider `O=C(NS(=O)(=O)c1ccc(COc2ccccc2)cc1)c1ccc(-c2ccc(F)cc2)cc1`, for which the concentration for half-maximal inhibition (IC50) on Bcl-2-like protein 1 [1] worked out at 9.37 µM; in assay [2], 16.6 µM.
On the same counts, the results for `COc1ccccc1Oc1ccc(S(=O)(=O)NC(=O)c2cccc(-c3ccc(Cl)c(Cl)c3)c2)cc1` are 3.76 µM and 6.63 µM.
The corresponding values for `O=C(NS(=O)(=O)c1ccc(Oc2ccccc2)cc1)c1cccc(-c2cc(Cl)cc(Cl)c2)c1` are 2.53 µM and 7.11 µM.
For `O=C(NS(=O)(=O)c1ccc(OCc2ccccc2)cc1)c1ccc(-c2cc(Cl)cc(Cl)c2)cc1`, the figures for the IC50 (on Bcl-2-like protein 1 [1]; in assay [2]) were 3.19 µM and 6.3 µM, respectively.
In the case of `O=C(NS(=O)(=O)c1ccc(Oc2ccccc2)cc1)c1cccc(-c2ccc(Cl)c(Cl)c2)c1`, the 50% inhibitory concentration (IC50) was found to be 1.97 µM on Bcl-2-like protein 1 [1] and 2.48 µM in assay [2].
